# Measured values: paper PMC6151383 (Molecules : A Journal of Synthetic Chemistry and Natural …, 2017)
# Test system: Mycobacterium tuberculosis 331/88 (H37Rv)
# Assay: In vitro antimycobacterial MIC, M. tuberculosis
# Type: cell-based
# Conditions: 336 h, 14 d incubation, read-out: MIC Mtb. 331/88 14 d
row,Compound,MIC [µM]
1,"O=S(=O)(Nc1ncccn1)c1ccc(N=Cc2cc(Cl)cc(I)c2O)cc1 [Compound 2o, 4-[(5-Chloro-2-hydroxy-3-iodobenzylidene)amino]-N-(pyrimidin-2-yl)benzenesulfonamide]",125

# Same assay, conditions: 504 h, 21 d incubation, read-out: MIC Mtb. 331/88 21 d
row,Compound,MIC [µM]
1,"O=S(=O)(Nc1ncccn1)c1ccc(N=Cc2cc(Cl)cc(I)c2O)cc1 [Compound 2o, 4-[(5-Chloro-2-hydroxy-3-iodobenzylidene)amino]-N-(pyrimidin-2-yl)benzenesulfonamide]",125

# Test system: Staphylococcus epidermidis H 6966/08
# Assay: Antibacterial microdilution broth MIC, S. epidermidis
# Type: cell-based
# Conditions: Staphylococcus epidermidis, H6966/08; 48 h incubation; read-out: MIC SE 48 h
row,Compound,MIC [µM]
1,"O=S(=O)(Nc1ncccn1)c1ccc(N=Cc2cc(Cl)cc(I)c2O)cc1 [Compound 2o, 4-[(5-Chloro-2-hydroxy-3-iodobenzylidene)amino]-N-(pyrimidin-2-yl)benzenesulfonamide]",31.2

# Test system: Aspergillus fumigatus 231
# Assay: Antifungal microdilution broth MIC, A. fumigatus
# Type: cell-based
# Conditions: Aspergillus fumigatus, 231, 24 h, read-out: MIC AF 24 h
row,Compound,MIC [µM]
1,"O=S(=O)(Nc1ncccn1)c1ccc(N=Cc2cc(Cl)cc(I)c2O)cc1 [Compound 2o, 4-[(5-Chloro-2-hydroxy-3-iodobenzylidene)amino]-N-(pyrimidin-2-yl)benzenesulfonamide]",62.5

# Same assay, conditions: Aspergillus fumigatus, 231, 48 h, read-out: MIC AF 48 h
row,Compound,MIC [µM]
1,"O=S(=O)(Nc1ncccn1)c1ccc(N=Cc2cc(Cl)cc(I)c2O)cc1 [Compound 2o, 4-[(5-Chloro-2-hydroxy-3-iodobenzylidene)amino]-N-(pyrimidin-2-yl)benzenesulfonamide]",62.5

# Test system: Staphylococcus aureus CCM 4516/08
# Assay: Antibacterial microdilution broth MIC, S. aureus
# Type: cell-based
# Conditions: Staphylococcus aureus, CCM4516; 48 h incubation; read-out: MIC SA 48 h
row,Compound,MIC [µM]
1,"O=S(=O)(Nc1ncccn1)c1ccc(N=Cc2cc(Cl)cc(I)c2O)cc1 [Compound 2o, 4-[(5-Chloro-2-hydroxy-3-iodobenzylidene)amino]-N-(pyrimidin-2-yl)benzenesulfonamide]",15.6

# Test system: Mycobacterium kansasii 235/80
# Assay: In vitro antimycobacterial MIC, M. kansasii 235/80
# Type: cell-based
# Conditions: 235/80, 168 h, 7 d incubation, read-out: MIC M. kansasii 235/80 7 d
row,Compound,MIC [µM]
1,"O=S(=O)(Nc1ncccn1)c1ccc(N=Cc2cc(Cl)cc(I)c2O)cc1 [Compound 2o, 4-[(5-Chloro-2-hydroxy-3-iodobenzylidene)amino]-N-(pyrimidin-2-yl)benzenesulfonamide]",125

# Same assay, conditions: 235/80, 336 h, 14 d incubation, read-out: MIC M. kansasii 235/80 14 d
row,Compound,MIC [µM]
1,"O=S(=O)(Nc1ncccn1)c1ccc(N=Cc2cc(Cl)cc(I)c2O)cc1 [Compound 2o, 4-[(5-Chloro-2-hydroxy-3-iodobenzylidene)amino]-N-(pyrimidin-2-yl)benzenesulfonamide]",250

# Same assay, conditions: 235/80, 504 h, 21 d incubation, read-out: MIC M. kansasii 235/80 21 d
row,Compound,MIC [µM]
1,"O=S(=O)(Nc1ncccn1)c1ccc(N=Cc2cc(Cl)cc(I)c2O)cc1 [Compound 2o, 4-[(5-Chloro-2-hydroxy-3-iodobenzylidene)amino]-N-(pyrimidin-2-yl)benzenesulfonamide]",250

# Test system: Enterococcus faecalis J 14365/08
# Assay: Antibacterial microdilution broth MIC, E. faecalis
# Type: cell-based
# Conditions: Enterococcus faecalis, J14365/08; 48 h incubation; read-out: MIC EF 48 h
row,Compound,MIC [µM]
1,"O=S(=O)(Nc1ncccn1)c1ccc(N=Cc2cc(Cl)cc(I)c2O)cc1 [Compound 2o, 4-[(5-Chloro-2-hydroxy-3-iodobenzylidene)amino]-N-(pyrimidin-2-yl)benzenesulfonamide]",250

# Test system: Lichtheimia corymbifera 272
# Assay: Antifungal microdilution broth MIC, L. corymbifera
# Type: cell-based
# Conditions: Lichtheimia corymbifera, 272; 48 h incubation; read-out: MIC LC 48 h
row,Compound,MIC [µM]
1,"O=S(=O)(Nc1ncccn1)c1ccc(N=Cc2cc(Cl)cc(I)c2O)cc1 [Compound 2o, 4-[(5-Chloro-2-hydroxy-3-iodobenzylidene)amino]-N-(pyrimidin-2-yl)benzenesulfonamide]",250

# Test system: Candida krusei E28
# Assay: Antifungal microdilution broth MIC, C. krusei
# Type: cell-based
# Conditions: Pichia kudriavzevii, E28; 48 h incubation; read-out: MIC CK 48 h
row,Compound,MIC [µM]
1,"O=S(=O)(Nc1ncccn1)c1ccc(N=Cc2cc(Cl)cc(I)c2O)cc1 [Compound 2o, 4-[(5-Chloro-2-hydroxy-3-iodobenzylidene)amino]-N-(pyrimidin-2-yl)benzenesulfonamide]",7.81

# Test system: ESBL-positive Klebsiella pneumoniae J 14368/08
# Assay: not given
# Conditions: 24 h
row,Compound,MIC KP-E 24 h [µM]
1,"O=S(=O)(Nc1ncccn1)c1ccc(N=Cc2cc(Cl)cc(I)c2O)cc1 [Compound 2o, 4-[(5-Chloro-2-hydroxy-3-iodobenzylidene)amino]-N-(pyrimidin-2-yl)benzenesulfonamide]",500

# Same assay, conditions: 48 h
row,Compound,MIC KP-E 48 h [µM]
1,"O=S(=O)(Nc1ncccn1)c1ccc(N=Cc2cc(Cl)cc(I)c2O)cc1 [Compound 2o, 4-[(5-Chloro-2-hydroxy-3-iodobenzylidene)amino]-N-(pyrimidin-2-yl)benzenesulfonamide]",500

# Test system: Pseudomonas aeruginosa CCM 1961
# Assay: Antibacterial microdilution broth MIC, P. aeruginosa
# Type: cell-based
# Conditions: Pseudomonas aeruginosa, CCM1961; 48 h incubation; read-out: MIC PA 48 h
row,Compound,MIC [µM]
1,"O=S(=O)(Nc1ncccn1)c1ccc(N=Cc2cc(Cl)cc(I)c2O)cc1 [Compound 2o, 4-[(5-Chloro-2-hydroxy-3-iodobenzylidene)amino]-N-(pyrimidin-2-yl)benzenesulfonamide]",500

# Test system: Candida albicans ATCC 44859
# Assay: Antifungal microdilution broth MIC, C. albicans
# Type: cell-based
# Conditions: ATCC44859, 48 h incubation, read-out: MIC CA 48 h
row,Compound,MIC [µM]
1,"O=S(=O)(Nc1ncccn1)c1ccc(N=Cc2cc(Cl)cc(I)c2O)cc1 [Compound 2o, 4-[(5-Chloro-2-hydroxy-3-iodobenzylidene)amino]-N-(pyrimidin-2-yl)benzenesulfonamide]",7.81

# Test system: Trichophyton interdigitale 445
# Assay: Antifungal microdilution broth MIC, T. interdigitale
# Type: cell-based
# Conditions: Trichophyton interdigitale, 445; 72 h incubation; read-out: MIC TI 72 h
row,Compound,MIC [µM]
1,"O=S(=O)(Nc1ncccn1)c1ccc(N=Cc2cc(Cl)cc(I)c2O)cc1 [Compound 2o, 4-[(5-Chloro-2-hydroxy-3-iodobenzylidene)amino]-N-(pyrimidin-2-yl)benzenesulfonamide]",1.95

# Same assay, conditions: Trichophyton interdigitale, 445; 120 h incubation; read-out: MIC TI 120 h
row,Compound,MIC [µM]
1,"O=S(=O)(Nc1ncccn1)c1ccc(N=Cc2cc(Cl)cc(I)c2O)cc1 [Compound 2o, 4-[(5-Chloro-2-hydroxy-3-iodobenzylidene)amino]-N-(pyrimidin-2-yl)benzenesulfonamide]",1.95

# Test system: Candida glabrata 20/I
# Assay: Antifungal microdilution broth MIC, C. glabrata
# Type: cell-based
# Conditions: Nakaseomyces glabratus, 48 h incubation, read-out: MIC CG 48 h
row,Compound,MIC [µM]
1,"O=S(=O)(Nc1ncccn1)c1ccc(N=Cc2cc(Cl)cc(I)c2O)cc1 [Compound 2o, 4-[(5-Chloro-2-hydroxy-3-iodobenzylidene)amino]-N-(pyrimidin-2-yl)benzenesulfonamide]",7.81

# Test system: Trichosporon asahii 1188
# Assay: Antifungal microdilution broth MIC, T. asahii
# Type: cell-based
# Conditions: Trichosporon asahii, 1188; 48 h incubation; read-out: MIC TA 48 h
row,Compound,MIC [µM]
1,"O=S(=O)(Nc1ncccn1)c1ccc(N=Cc2cc(Cl)cc(I)c2O)cc1 [Compound 2o, 4-[(5-Chloro-2-hydroxy-3-iodobenzylidene)amino]-N-(pyrimidin-2-yl)benzenesulfonamide]",7.81

# Test system: M. kansasii 6509/96
# Assay: In vitro antimycobacterial MIC, M. kansasii clinical isolate
# Type: cell-based
# Conditions: Mycobacterium kansasii, 6509/96, 168 h; 7 d incubation; read-out: MIC M. kansasii 6509/96 7 d
row,Compound,MIC [µM]
1,"O=S(=O)(Nc1ncccn1)c1ccc(N=Cc2cc(Cl)cc(I)c2O)cc1 [Compound 2o, 4-[(5-Chloro-2-hydroxy-3-iodobenzylidene)amino]-N-(pyrimidin-2-yl)benzenesulfonamide]",62.5

# Same assay, conditions: Mycobacterium kansasii, 6509/96, 336 h; 14 d incubation; read-out: MIC M. kansasii 6509/96 14 d
row,Compound,MIC [µM]
1,"O=S(=O)(Nc1ncccn1)c1ccc(N=Cc2cc(Cl)cc(I)c2O)cc1 [Compound 2o, 4-[(5-Chloro-2-hydroxy-3-iodobenzylidene)amino]-N-(pyrimidin-2-yl)benzenesulfonamide]",125

# Same assay, conditions: Mycobacterium kansasii, 6509/96, 504 h; 21 d incubation; read-out: MIC M. kansasii 6509/96 21 d
row,Compound,MIC [µM]
1,"O=S(=O)(Nc1ncccn1)c1ccc(N=Cc2cc(Cl)cc(I)c2O)cc1 [Compound 2o, 4-[(5-Chloro-2-hydroxy-3-iodobenzylidene)amino]-N-(pyrimidin-2-yl)benzenesulfonamide]",125

# Test system: Escherichia coli CCM 4517
# Assay: Antibacterial microdilution broth MIC, E. coli
# Type: cell-based
# Conditions: Escherichia coli, CCM4517; 48 h incubation; read-out: MIC EC 48 h
row,Compound,MIC [µM]
1,"O=S(=O)(Nc1ncccn1)c1ccc(N=Cc2cc(Cl)cc(I)c2O)cc1 [Compound 2o, 4-[(5-Chloro-2-hydroxy-3-iodobenzylidene)amino]-N-(pyrimidin-2-yl)benzenesulfonamide]",250

# Test system: Klebsiella pneumoniae D 11750/08
# Assay: not given
# Conditions: 24 h
row,Compound,MIC KP 24 h [µM]
1,"O=S(=O)(Nc1ncccn1)c1ccc(N=Cc2cc(Cl)cc(I)c2O)cc1 [Compound 2o, 4-[(5-Chloro-2-hydroxy-3-iodobenzylidene)amino]-N-(pyrimidin-2-yl)benzenesulfonamide]",500

# Same assay, conditions: 48 h
row,Compound,MIC KP 48 h [µM]
1,"O=S(=O)(Nc1ncccn1)c1ccc(N=Cc2cc(Cl)cc(I)c2O)cc1 [Compound 2o, 4-[(5-Chloro-2-hydroxy-3-iodobenzylidene)amino]-N-(pyrimidin-2-yl)benzenesulfonamide]",500

# Test system: Candida tropicalis 156
# Assay: Antifungal microdilution broth MIC, C. tropicalis
# Type: cell-based
# Conditions: Candida tropicalis, 156; 48 h incubation; read-out: MIC CT 48 h
row,Compound,MIC [µM]
1,"O=S(=O)(Nc1ncccn1)c1ccc(N=Cc2cc(Cl)cc(I)c2O)cc1 [Compound 2o, 4-[(5-Chloro-2-hydroxy-3-iodobenzylidene)amino]-N-(pyrimidin-2-yl)benzenesulfonamide]",7.81

# Test system: Mycobacterium avium 330/88
# Assay: In vitro antimycobacterial MIC, M. avium
# Type: cell-based
# Conditions: 330/88, 336 h, 14 d incubation, read-out: MIC M. avium 330/88 14 d
row,Compound,MIC [µM]
1,"O=S(=O)(Nc1ncccn1)c1ccc(N=Cc2cc(Cl)cc(I)c2O)cc1 [Compound 2o, 4-[(5-Chloro-2-hydroxy-3-iodobenzylidene)amino]-N-(pyrimidin-2-yl)benzenesulfonamide]",500

# Same assay, conditions: 330/88, 504 h, 21 d incubation, read-out: MIC M. avium 330/88 21 d
row,Compound,MIC [µM]
1,"O=S(=O)(Nc1ncccn1)c1ccc(N=Cc2cc(Cl)cc(I)c2O)cc1 [Compound 2o, 4-[(5-Chloro-2-hydroxy-3-iodobenzylidene)amino]-N-(pyrimidin-2-yl)benzenesulfonamide]",500
